Assay results taken from patent publication US20220265775A1, “COMPOSITIONS AND METHODS FOR TREATING PULMONARY EDEMA OR LUNG INFLAMMATION” (priority 2019, published 2022).

Legend:
[1] = system: myeloperoxidase (MPO) activity in lung tissue; test: Myeloperoxidase (MPO) activity assay and MPO immunostaining of lung tissue of hyperoxia-exposed rats; assay type: in vivo, Sprague Dawley rats
Source text: (§1) All experimental protocols for animal treatments were approved by the University of Minnesota Institutional Animal Care and Use Committee. […] The room-air control rats were kept in the University animal housing facility. At the end of hyperoxic exposure, rats were sacrificed by intraperitoneal pentobarbital injection, and the lungs were harvested; the right lobes were allocated for histopathology, measurement of lung tissue myeloperoxidase (MPO) activity and wet-to-dry weight ratio. The left lobes underwent bronchoalveolar lavage (BAL) to determine BAL protein concentrations and differential cell counts.
To quantify the neutrophil activity in the lung, MPO activity was assayed as previously described (Abraham et al., J Immunol 165:2950-2954, 2000). Lung tissues without prior lavage were frozen in liquid nitrogen, weighed, and stored at −86° C. The lungs were homogenized for 30 seconds in 1.5 ml 20 mM potassium phosphate, pH 7.4, and centrifuged at 4° C. for 30 minutes at 40,000×g. The pellet was resuspended in 1.5 ml 50 mM potassium phosphate, pH 6.0, containing 0.5% hexadecyltrimethylammonium bromide, sonicated for 90 seconds, incubated at 60° C. for two hours, and centrifuged at 14,000 rpm for 30 minutes at 4° C. The supernatant was assayed for peroxidase activity corrected to lung weight. MPO was expressed as activity per gram of lung tissue. […]

[2] = system: hyperoxia-induced lung injury; test: Histopathological evaluation of lung sections of hyperoxia-exposed rats; assay type: in vivo, Sprague Dawley rats; conditions: 60 hours of hyperoxia, systemic T3 supplementation
Source text: FIG. 18. […] (A) Control: room air; (B) Hyperoxia; (C) Hyperoxia+T3.
as §1
Lung tissue was removed and inflation fixed at 20 cm water pressure in 4% paraformaldehyde, paraffin embedded, cut as 5 micron sections and mounted onto poly-L-lysine slides. Sections were deparaffinized in xylene, rehydrated through a graded alcohol series in methanol, and placed in a 98° C. water bath for 30 minutes in citrate buffer (pH 6.0) for antigen retrieval. After quenching with 0.3% hydrogen peroxide in PBS, sections were incubated in normal serum for 30 minutes and for 15 minutes each with Avidin/Biotin Blocking Kit (Vector Laboratories, Inc., Burlingame, Calif.). […]

[3] = system: hyperoxia-induced lung injury; test: Lung lavage (BAL) analyses in hyperoxia-exposed rats: protein concentration and cell counts; assay type: in vivo, Sprague Dawley rats
Source text: as §1
Bronchoalveolar lavage (BAL) of the left lung was performed using a modification of a method previously described (Pace et al., Exp Lung Res 35:380-398, 2009). Briefly, 4 mls of ice-chilled 1×PBS (pH 7.4) were instilled into the left lung, withdrawn, and re-instilled two subsequent times prior to analysis of the lavage fluid. The retrieved BAL fluid was centrifuged at 1500 rpm for 10 minutes to remove cells and debris. The cell pellet was resuspended in 1 ml of 1×PBS (pH 7.4) and total cell number was counted using a hemocytometer. BAL cytospin preparations were stained using the Hema3 stain kit (Thermo Fisher Scientific, Inc., Waltham, Mass.) to identify the nucleated cells. The protein concentration was determined on the supernatants of BAL fluid using a standard BCA assay (Sigma-Aldrich, St. Louis, Mo.).

Nrf2 = test: Western blot of total cellular and nuclear Nrf2 protein in RLE-6TN cells under hyperoxia; assay type: cell-based, rat; conditions: 24 hours of hyperoxia, 10^−6 M T3
Description: FIG. 9. […] The cells were then collected for Western Blot analysis. (A) Cellular total Nrf2 protein; (B) Nuclear Nrf2.
Nuclei were extracted with NE-PER nuclear and cytoplasmic extraction reagents kit (Thermo Fisher Scientific, Inc., Waltham, Mass.) following the manufacturer's instruction.
The cells were lysed in lysis buffer containing 20 mM Tris HCl (pH 7.5), 150 mM NaCl, 1 mM EDTA, 1 mM EGTA, 1% (vol/vol) Triton X-100 with protease inhibitors (1 mM PMSF, 2 μg/ml pepstatin, and 10 μg/ml each of aprotinin and leupeptin), and phosphatase inhibitors (2.5 mM sodium pyrophosphate, 1 mM β-glycerophosphate, and 1 mM Na3VO4). The lysate was drawn 10 times through a 25-gauge needle on ice for further lysis and then was centrifuged at 13,000 rpm for 15 minutes at 4° C. The supernatant was collected, and the protein concentrations were determined by use of the BCA protein assay kit (Sigma-Aldrich, St. Louis, Mo.). Immediately after this step, equal amounts of protein were subjected to Western blotting analysis.

RLE-6TN cells = test: RLE-6TN cell survival under hyperoxia and recovery, viable cells counted by trypan blue exclusion; assay type: cell-based, rat
Description: FIG. 7. […] The cells were cultured in DMEM/F12 with 10% FBS in 21% O2 and 5% CO2 overnight. […] The viable cells are counted immediately after 72-hour hyperoxia exposure. Cell viability is assessed with trypan blue. The amount of viable cells under specific conditions is presented as a percentage of the cell number from hyperoxia alone. Data are mean±s.d. of four independent experiments with *=P<0.05; **=P<0.01.
FIG. 8. […] In both (A) and (B), the number of viable cells under specific conditions is presented as a percentage of the cell number related to hyperoxia alone in the same experiment. Data are mean s.d. of four independent experiments with *=P<0.05; **=P<0.01.
FIG. 10. HO-1 upregulation is required for T3-increased RLE-6TN cell survival in hyperoxia. […] The cells were then collected for Western Blot analysis. (B) The cells were incubated in 21% O2 and 5% CO2 for 72 hours in the present of HO-1 inhibitor Tin Protoporphyrin IX (10^−6M). […] Cell viability is assessed with trypan blue. The number of viable cells under specific conditions is presented as a percentage of the cell number related to hyperoxia alone. Data are mean±s.d. of three independent experiments with *=P<0.05; **=P<0.01.
FIG. 11. PI3K inhibitor wortmannin blocked T3-induced cell survival in hyperoxia. […] Cell viability is assessed with trypan blue. The number of viable cells under specific conditions is presented as a percentage of the cell number related to hyperoxia alone. Data are mean±s.d. of four independent experiments with *=P<0.05; **=P<0.01.
At the end of the hyperoxia exposure period, the viable cells were counted by trypan blue dye exclusion.

## N[C@@H](Cc1cc(I)c(Oc2ccc(O)c(I)c2)c(I)c1)C(=O)O [T3, triiodothyronine]
[1]; T3-injected rats exposed to 95% oxygen for 60 hours vs hyperoxic lungs without T3
  MPO-positive cells in the lungs (immunostaining): fewer MPO-positive cells
[1]; rats, 60 hours of hyperoxia, T3 supplementation vs hyperoxia alone
  lung MPO activity: significantly reduced the hyperoxia-induced MPO activity
[2]
  lung morphology (histopathology): persistence of virtually normal lung morphology
[3]; rats after hyperoxia with T3 treatment (data not shown)
  neutrophils among BALF cells: relatively few of the BALF cells after hyperoxia were neutrophils
[3]; rats, 95% oxygen, 48 hours and 60 hours, T3 administration vs hyperoxia alone
  BALF cell numbers: significantly reduced the BALF cell numbers
[3]; rats, hyperoxia, 48 hour and 60 hour time points, T3 administration vs hyperoxia alone
  BALF protein concentration: attenuated significantly the hyperoxic increases
Nrf2
  nuclear Nrf-2 protein expression: significantly increased both total cellular and nuclear Nrf-2 protein expression
  total cellular Nrf-2 protein expression: significantly increased both total cellular and nuclear Nrf-2 protein expression
RLE-6TN cells; 90% oxygen for 24 or 48 hours, compound present only during recovery in 21% O2
  number of viable AT2 cells at 48 hours of recovery: significantly increased the number of viable AT2 cells
RLE-6TN cells; 90% oxygen for 72 hours, 10^−6M
  increase in number of surviving cells compared with hyperoxia control: ~2.5 fold
RLE-6TN cells; hyperoxia 72 hours with T3, then room air 72 hours with no supplemental T3
  protective effect on viable AT2 cell number after recovery in room air: persisted and was of similar magnitude
